# In patent publication US8952024B2, “Herbicidal pyrimidone derivatives” (E I du Pont de Nemours and Company, priority 2009, dated 2015):
# Tests used:
# Type in all cases: in vivo
# [1] = test system: umbrella sedge (Cyperus difformis); test: Test B flooded paddy test; conditions: for Plant response rating, Flood, Sedge, Umbrella: 250 g ai/ha, flooded paddy test, visual rating on 0 to 100 scale (0 no effect, 100 complete control) after 13 to 15 days; for Plant response rating, Sedge, Umbrella: Flood (flooded paddy test), 62 g ai/ha, scale of 0 to 100 where 0 is no effect and 100 is complete control, 13 to 15 days
# In short: (§1)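 Plants were grown to the 2-leaf stage, then pots were flooded to 3 cm above the soil and compounds were applied directly into the paddy water. That depth was held throughout. After 13 to 15 days in a greenhouse, injury was visually rated against controls on a 0–100 scale.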
# [2] = test system: barnyardgrass (Echinochloa crus-galli); test: Test B flooded paddy test; conditions: for Plant response rating, Flood, Barnyardgrass: 250 g ai/ha, flooded paddy test, visual rating on 0 to 100 scale (0 no effect, 100 complete control) after 13 to 15 days; for Plant response rating, Barnyardgrass: Flood (flooded paddy test), 62 g ai/ha, scale of 0 to 100 where 0 is no effect and 100 is complete control, 13 to 15 days
# In short: as §1
# [3] = test system: morningglory (Ipomoea coccinea); test: Test B pre-/postemergence plant response; conditions: for Morningglory plant response rating (0 to 100 scale): 0 is no effect, 13 to 15 days
# In short: (§2)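 Ratings reflect visual comparison with untreated controls 13 to 15 days after application, from 0 (no effect) to 100 (complete control). Application was preemergence to seeded loam/sand soil or postemergence to 1- to 4-leaf plants, with compound in a non-phytotoxic, surfactant-containing solvent.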
# [4] = test system: bermudagrass (Cynodon dactylon); test: Test B pre-/postemergence plant response; conditions: for Bermudagrass plant response rating (0 to 100 scale): 0 is no effect, 13 to 15 days
# In short: as §2
# [5] = test system: cocklebur (Xanthium strumarium); test: Test B pre-/postemergence plant response; conditions: for Cocklebur plant response rating (0 to 100 scale): 0 is no effect, 13 to 15 days
# In short: as §2
# [6] = test system: goosegrass (Eleusine indica); test: Test B pre-/postemergence plant response; conditions: for Goosegrass plant response rating (0 to 100 scale): 0 is no effect, 13 to 15 days
# In short: as §2
# [7] = test system: green foxtail (Setaria viridis); test: Test B pre-/postemergence plant response; conditions: for Foxtail, Green plant response rating (0 to 100 scale): 0 is no effect, 13 to 15 days
# In short: as §2
# [8] = test system: wheat (Triticum aestivum); test: Test B pre-/postemergence plant response; conditions: for Wheat plant response rating (0 to 100 scale): 0 is no effect, 13 to 15 days
# In short: as §2
# [9] = test system: lambsquarters (Chenopodium album); test: Test B pre-/postemergence plant response; conditions: for Lambsquarters plant response rating (0 to 100 scale): 0 is no effect, 13 to 15 days
# In short: as §2
# [10] = test system: wild oat (Avena fatua); test: Test B pre-/postemergence plant response; conditions: for Oat, Wild plant response rating (0 to 100 scale): 0 is no effect, 13 to 15 days
# In short: as §2
# [11] = test system: yellow nutsedge (Cyperus esculentus); test: Test B pre-/postemergence plant response; conditions: for Nutsedge, Yellow plant response rating (0 to 100 scale): 0 is no effect, 13 to 15 days
# In short: as §2
# [12] = test system: large crabgrass (Digitaria sanguinalis); test: Test B pre-/postemergence plant response; conditions: for Crabgrass, Large plant response rating (0 to 100 scale): 0 is no effect, 13 to 15 days
# In short: as §2
# [13] = 31 g ai/ha, postemergence, scale 0 to 100, 0 is no effect, 100 is complete control
# [14] = 62 g ai/ha, postemergence, 100 is complete control
# [15] = Postemergence, 125 g ai/ha, scale 0 to 100 (0 no effect, 100 complete control)
# [16] = Postemergence, 250 g ai/ha, scale 0 to 100 (0 no effect, 100 complete control)
# [17] = Postemergence, 125 g ai/ha, visual rating after 13 to 15 days, scale 0 (no effect) to 100 (complete control)
# [18] = Preemergence, 31 g ai/ha, scale 0 to 100 (0 no effect, 100 complete control)
# [19] = Preemergence, 62 g ai/ha, scale 0 to 100 (0 no effect, 100 complete control)
# [20] = Preemergence, 125 g ai/ha, scale 0 to 100, 0 no effect, 100 complete control
# [21] = Preemergence, 250 g ai/ha, 0 to 100 scale
compound,measurement,setting,value
COCCn1c(-c2cccc(C)c2)ncc(C(=O)C2=C(O)CCCC2=O)c1=O [Compound 117],"Plant response rating, Flood, Sedge, Umbrella",[1],95
same,"Plant response rating, Sedge, Umbrella",[1],95
same,"Plant response rating, Flood, Barnyardgrass",[2],75
same,"Plant response rating, Barnyardgrass",[2],65
same,"Plant response rating, Morningglory",[3]; [13],10
same,Morningglory plant response rating (0 to 100 scale),[3]; [14],75
same,"Plant response rating, Morningglory",[3]; [15],80
same,"Plant response rating, Morningglory",[3]; [16],100
same,"Plant response rating, Bermudagrass",[4]; [13],75
same,Bermudagrass plant response rating (0 to 100 scale),[4]; [14],90
same,"Plant response rating, Bermudagrass",[4]; [15],95
same,"Plant response rating, Bermudagrass",[4]; [16],100
same,"Plant response rating, Cocklebur",[5]; [13],75
same,Cocklebur plant response rating (0 to 100 scale),[5]; [14],75
same,"Plant response rating, Cocklebur",[5]; [15],98
same,"Plant response rating, Cocklebur",[5]; [16],100
same,"Plant response rating, Goosegrass",[6]; [13],45
same,Goosegrass plant response rating (0 to 100 scale),[6]; [14],75
same,"Plant response rating, Goosegrass",[6]; [15],75
same,"Plant response rating, Goosegrass",[6]; [16],85
same,"Plant response rating, Foxtail, Green",[7]; [13],50
same,"Foxtail, Green plant response rating (0 to 100 scale)",[7]; [14],70
same,"Plant response rating, Foxtail, Green",[7]; [15],80
same,"Plant response rating, Foxtail, Green",[7]; [16],95
same,Wheat plant response rating (0 to 100 scale),[8]; [14],5
same,"Plant response rating, Wheat",[8]; [15],20
same,"Plant response rating, Lambsquarters",[9]; [13],95
same,Lambsquarters plant response rating (0 to 100 scale),[9]; [14],98
same,"Plant response rating, Lambsquarters",[9]; [15],100
same,"Plant response rating, Lambsquarters",[9]; [16],100
same,"Plant response rating, Oat, Wild",[10]; [13],5
same,"Oat, Wild plant response rating (0 to 100 scale)",[10]; [14],10
same,"Plant response rating, Oat, Wild",[10]; [15],30
same,"Plant response rating, Oat, Wild",[10]; [16],35
same,"Plant response rating, Nutsedge, Yellow",[11]; [13],0
same,"Nutsedge, Yellow plant response rating (0 to 100 scale)",[11]; [14],0
same,"Plant response rating, Nutsedge, Yellow",[11]; [15],25
same,"Plant response rating, Nutsedge, Yellow",[11]; [16],35
same,"Plant response rating, Crabgrass, Large",[12]; [13],75
same,"Crabgrass, Large plant response rating (0 to 100 scale)",[12]; [14],80
same,"Plant response rating, Crabgrass, Large",[12]; [15],95
same,"Plant response rating, Crabgrass, Large",[12]; [16],95
CCCn1c(-c2cccs2)ncc(C(=O)C2=C(O)CCCC2=O)c1=O [Compound 77],"Plant response rating, Flood, Sedge, Umbrella",[1],40
same,"Plant response rating, Sedge, Umbrella",[1],40
same,"Plant response rating, Flood, Barnyardgrass",[2],65
same,"Plant response rating, Barnyardgrass",[2],30
same,"Plant response rating, Morningglory",[3]; [13],75
same,Morningglory plant response rating (0 to 100 scale),[3]; [14],75
same,"Plant response rating, Morningglory",[3]; [17],80
same,"Plant response rating, Morningglory",[3]; [16],90
same,"Plant response rating, Morningglory",[3]; [18],0
same,"Plant response rating, Morningglory",[3]; [19],65
same,"Plant response rating, Morningglory",[3]; [20],75
same,Morningglory plant response rating,[3]; [21],90
same,"Plant response rating, Bermudagrass",[4]; [13],90
same,Bermudagrass plant response rating (0 to 100 scale),[4]; [14],90
same,"Plant response rating, Bermudagrass",[4]; [17],95
same,"Plant response rating, Bermudagrass",[4]; [16],95
same,"Plant response rating, Bermudagrass",[4]; [18],55
same,"Plant response rating, Bermudagrass",[4]; [19],100
same,"Plant response rating, Bermudagrass",[4]; [20],100
same,Bermudagrass plant response rating,"[4]; Preemergence, 250 g ai/ha, 0 to 100 scale, 0 no effect, 100 complete control",100
same,"Plant response rating, Cocklebur",[5]; [13],0
same,Cocklebur plant response rating (0 to 100 scale),[5]; [14],0
same,"Plant response rating, Cocklebur",[5]; [17],60
same,"Plant response rating, Cocklebur",[5]; [16],85
same,"Plant response rating, Cocklebur",[5]; [18],0
same,"Plant response rating, Cocklebur",[5]; [19],0
same,"Plant response rating, Cocklebur",[5]; [20],10
same,Cocklebur plant response rating,[5]; [21],65
same,"Plant response rating, Goosegrass",[6]; [13],65
same,Goosegrass plant response rating (0 to 100 scale),[6]; [14],75
same,"Plant response rating, Goosegrass",[6]; [17],75
same,"Plant response rating, Goosegrass",[6]; [16],85
same,"Plant response rating, Goosegrass",[6]; [18],55
same,"Plant response rating, Goosegrass",[6]; [19],95
same,"Plant response rating, Goosegrass",[6]; [20],98
same,Goosegrass plant response rating,[6]; [21],98
same,"Plant response rating, Foxtail, Green",[7]; [13],40
same,"Foxtail, Green plant response rating (0 to 100 scale)",[7]; [14],80
same,"Plant response rating, Foxtail, Green",[7]; [17],80
same,"Plant response rating, Foxtail, Green",[7]; [16],80
same,"Plant response rating, Foxtail, Green",[7]; [18],0
same,"Plant response rating, Foxtail, Green",[7]; [19],0
same,"Plant response rating, Foxtail, Green",[7]; [20],0
same,"Foxtail, Green plant response rating",[7]; [21],15
same,"Plant response rating, Wheat",[8]; [13],0
same,Wheat plant response rating (0 to 100 scale),[8]; [14],5
same,"Plant response rating, Wheat",[8]; [17],10
same,"Plant response rating, Wheat",[8]; [16],10
same,"Plant response rating, Wheat",[8]; [18],0
same,"Plant response rating, Wheat",[8]; [19],0
same,"Plant response rating, Wheat",[8]; [20],0
same,Wheat plant response rating,[8]; [21],0
same,"Plant response rating, Lambsquarters",[9]; [13],95
same,Lambsquarters plant response rating (0 to 100 scale),[9]; [14],98
same,"Plant response rating, Lambsquarters",[9]; [17],98
same,"Plant response rating, Lambsquarters",[9]; [16],98
same,"Plant response rating, Lambsquarters",[9]; [18],98
same,"Plant response rating, Lambsquarters",[9]; [19],98
same,"Plant response rating, Lambsquarters",[9]; [20],100
same,Lambsquarters plant response rating,[9]; [21],100
same,"Plant response rating, Oat, Wild",[10]; [13],0
same,"Oat, Wild plant response rating (0 to 100 scale)",[10]; [14],5
same,"Plant response rating, Oat, Wild",[10]; [17],5
same,"Plant response rating, Oat, Wild",[10]; [16],5
same,"Plant response rating, Oat, Wild",[10]; [18],0
same,"Plant response rating, Oat, Wild",[10]; [19],0
same,"Plant response rating, Oat, Wild",[10]; [20],0
same,"Oat, Wild plant response rating",[10]; [21],0
same,"Plant response rating, Nutsedge, Yellow",[11]; [13],45
same,"Nutsedge, Yellow plant response rating (0 to 100 scale)",[11]; [14],60
same,"Plant response rating, Nutsedge, Yellow",[11]; [17],70
same,"Plant response rating, Nutsedge, Yellow",[11]; [16],80
same,"Plant response rating, Nutsedge, Yellow",[11]; [18],75
same,"Plant response rating, Nutsedge, Yellow",[11]; [19],80
same,"Plant response rating, Nutsedge, Yellow",[11]; [20],90
same,"Nutsedge, Yellow plant response rating",[11]; [21],90
same,"Plant response rating, Crabgrass, Large",[12]; [13],55
same,"Crabgrass, Large plant response rating (0 to 100 scale)",[12]; [14],60
same,"Plant response rating, Crabgrass, Large",[12]; [17],75
same,"Plant response rating, Crabgrass, Large",[12]; [16],85
same,"Plant response rating, Crabgrass, Large",[12]; [18],70
same,"Plant response rating, Crabgrass, Large",[12]; [19],98
same,"Plant response rating, Crabgrass, Large",[12]; [20],98
same,"Crabgrass, Large plant response rating",[12]; [21],100
